One assay deals with Mu-type opioid receptor (Homo sapiens, UniProt P35372).
The target in the next assay is T1, Adenosine receptor A1 (Homo sapiens, UniProt P30542).
T1 sequence (P30542 whole entry): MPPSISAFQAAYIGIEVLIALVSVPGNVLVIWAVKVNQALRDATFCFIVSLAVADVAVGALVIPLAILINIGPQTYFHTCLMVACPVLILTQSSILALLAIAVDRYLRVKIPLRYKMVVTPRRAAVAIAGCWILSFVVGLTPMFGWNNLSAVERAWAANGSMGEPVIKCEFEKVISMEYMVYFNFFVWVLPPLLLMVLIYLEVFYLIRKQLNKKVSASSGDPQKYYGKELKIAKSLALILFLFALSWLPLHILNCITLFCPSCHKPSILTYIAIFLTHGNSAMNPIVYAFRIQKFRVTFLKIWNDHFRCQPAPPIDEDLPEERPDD
The assay is described as follows: Binding affinity to adenosine receptor A1.

Some results are limits rather than exact numbers.

Chain of Mu-type opioid receptor (P35372 whole entry): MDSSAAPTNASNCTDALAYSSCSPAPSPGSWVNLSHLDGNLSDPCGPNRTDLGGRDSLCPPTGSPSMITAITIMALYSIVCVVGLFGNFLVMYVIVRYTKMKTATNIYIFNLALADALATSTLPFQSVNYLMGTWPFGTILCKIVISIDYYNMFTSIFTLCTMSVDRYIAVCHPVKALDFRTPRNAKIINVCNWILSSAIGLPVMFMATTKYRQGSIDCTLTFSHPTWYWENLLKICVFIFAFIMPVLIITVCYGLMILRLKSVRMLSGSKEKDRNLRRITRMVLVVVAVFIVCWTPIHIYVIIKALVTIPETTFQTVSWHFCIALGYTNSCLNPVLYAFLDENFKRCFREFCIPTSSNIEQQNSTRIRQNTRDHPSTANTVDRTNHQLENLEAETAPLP

Take `CCCn1c(=O)c2[nH]c(C3CCCC3)nc2n(CCC)c1=O` [1,3-DIPROPYL-8-CYCLOPENTYLXANTHINE [DPCPX]]: the Ki at Mu-type opioid receptor was > 100 µM.

`C[C@@H](NC(=O)[C@@H](N)Cc1ccc(O)cc1)C(=O)NCC(=O)N(C)[C@@H](Cc1ccccc1)C(=O)NCCO` [DAMGO]: the Ki at Adenosine receptor A1 is > 100 µM.

With `C=CCN1CC[C@]23c4c5ccc(O)c4O[C@H]2C(=O)CC[C@@]3(O)[C@H]1C5` [NALOXONE], the Ki at Adenosine receptor A1 was > 50 µM.

As usually defined, the Ki is a dissociation constant, usually derived from enzyme kinetics or from competition with a known ligand. Read a high Ki as lower affinity.

The values above are taken from ChEMBL document CHEMBL1154631 (Bioorg Med Chem Lett, 2009).
